Measurements as given in publication PMC6934184, “Selective DNA-PKcs inhibition extends the therapeutic index of localized radiotherapy and chemotherapy” (The Journal of Clinical Investigation, 2019).

Biological target: T1, PAK2 (PAK65) (Homo sapiens, UniProt Q13177)
T1 construct: purchased Thermo Fisher Scientific (Life Technologies) SelectScreen
Test: SelectScreen Z'LYTE
Assay type: biochemical
Outline: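 NU5455 was profiled across the SelectScreen Broad panel of kinase activity and binding assays. Z'LYTE reactions such as CSF1R ran at apparent Km ATP, while the Adapta CAMK1 assay used ATP listed as 10. Values are given as percent.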

T1 sequence (Q13177 whole entry): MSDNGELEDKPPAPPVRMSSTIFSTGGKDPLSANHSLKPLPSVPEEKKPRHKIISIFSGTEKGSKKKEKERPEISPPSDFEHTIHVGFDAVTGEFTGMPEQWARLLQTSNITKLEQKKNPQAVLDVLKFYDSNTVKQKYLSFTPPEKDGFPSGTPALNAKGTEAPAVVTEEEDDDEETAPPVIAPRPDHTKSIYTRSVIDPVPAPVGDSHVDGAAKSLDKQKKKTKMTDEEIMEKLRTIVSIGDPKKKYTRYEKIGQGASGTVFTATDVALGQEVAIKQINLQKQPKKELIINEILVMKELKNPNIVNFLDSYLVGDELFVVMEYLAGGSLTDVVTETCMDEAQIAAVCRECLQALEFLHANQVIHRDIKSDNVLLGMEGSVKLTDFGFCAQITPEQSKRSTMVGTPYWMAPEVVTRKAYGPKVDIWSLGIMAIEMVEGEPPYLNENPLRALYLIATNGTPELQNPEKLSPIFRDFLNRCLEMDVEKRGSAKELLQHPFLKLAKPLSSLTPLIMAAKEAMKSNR

`CN(C(=O)CN1CCOCC1)c1ccc2sc3c(-c4cccc5c(=O)cc(N6CC7CCC(C6)O7)oc45)cccc3c2c1` [NU5455] showed an inhibition at 1 µM of 4%.
